Data reported in patent US20260137662A1, “CD11B AGONISTS FOR TREATMENT OF AUTOIMMUNE DISEASE” (Rush University Medical Center, priority 2022, published 2026).

Tested on: NFkB pathway
Experiment: Gene expression in RAW 264.7 myeloid cells with NFkB inhibitor
Format: cell-based, murine
Conditions: presence of NFkB inhibitor; LPS-treated cells, 8 hours
Experimental: FIG. 6A illustrates gene expression of PLAUR in myeloid cells treated with NFkB inhibitor BMS 345541 and then subsequently treated for 8 hours with LA 1(20 uM), LPS (12.5, 25, 50, 100, or 250 ng/ml), or LPS and LA1 co-treatment (L+L).
FIG. 6B illustrates gene expression of NLRP3 in myeloid cells treated with NFkB inhibitor BMS 345541 and then subsequently treated for 8 hours with LA 1(20 uM), LPS (12.5, 25, 50, 100, or 250 ng/ml), or LPS and LA1 co-treatment (L+L).
FIG. 6C illustrates gene expression of and IL-6 in myeloid cells treated with NFkB inhibitor BMS 345541 and then subsequently treated for 8 hours with LA 1(20 uM), LPS (12.5, 25, 50, 100, or 250 ng/ml), or LPS and LA1 co-treatment (L+L).
In order to determine potential molecular mechanisms resulting in uPAR expression, the association between uPAR/suPAR and other inflammatory cytokines and the NFkB pathway were investigated. uPAR expression levels in RAW 264.7 myeloid cells were evaluated in the absence or presence of a known NFkB inhibitor, BMS 345541.

Cc1ccc2nc(NCCN)c3ncc(C)n3c2c1 [BMS 345541]
expression levels of IL-6: reduced | expression levels of NLRP3: reduced | relative gene expression of PLAUR (uPAR): reduced relative gene expression
